The assay addresses T1, β(1,4)-Gal-T1(Y289L) (Bos taurus, UniProt P08037, I205M/L206V/P187L/V158I/Y289L).
T1 construct: made in house; host or cells: E. coli
T1 sequence (P08037 1-402 V158I/P187L/I205M/L206V/Y289L): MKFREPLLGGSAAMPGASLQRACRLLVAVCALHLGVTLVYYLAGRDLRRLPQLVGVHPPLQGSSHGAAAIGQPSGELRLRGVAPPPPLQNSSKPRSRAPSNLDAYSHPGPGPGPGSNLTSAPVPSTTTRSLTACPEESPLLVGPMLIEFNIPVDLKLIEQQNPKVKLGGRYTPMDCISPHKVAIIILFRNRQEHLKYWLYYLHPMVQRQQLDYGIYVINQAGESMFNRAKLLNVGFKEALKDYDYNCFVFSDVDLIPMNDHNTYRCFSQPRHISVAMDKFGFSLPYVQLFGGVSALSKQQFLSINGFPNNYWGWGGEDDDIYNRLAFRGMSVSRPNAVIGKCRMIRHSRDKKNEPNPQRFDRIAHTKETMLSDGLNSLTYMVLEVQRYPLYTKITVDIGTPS
Briefly: Glycosyltransfer of UDP-galactosamine derivatives to trimmed trastuzumab with Gal-T1(Y289L) expressed in E. coli, mass spectral analysis. The following applies: trimmed trastuzumab 10 mg/mL; UDP derivative 7 mM; enzyme 2 mg/mL; pH 8.0, 30° C. overnight; reduced sample. The assay is classed as biochemical, bovine. How it is done:
General Protocol for Glycosyltransfer of Galactose Derivative UDP-GalNAz 21-24 with Gal-T1(Y289L) (Expressed in E. coli).
Enzymatic introduction of UDP-Gal derivatives 21-24 onto deglycosylated trastuzumab was effected with a mutant of bovine β(1,4)-galactosyltransferase [β(1,4)-Gal-T1(Y289L)] (expressed in E. coli). The deglycosylated trastuzumab (10 mg/mL) was incubated with the appropriate UDP-galactose derivative (0.4 mM) and β(1,4)-Gal-T1(Y289L) (1 mg/mL) in 10 mM MnCl2 and 25 mM Tris-HCl pH 8.0 for 16 hours at 30° C.
Next, the functionalized trastuzumab was incubated with protein A agarose (40 μL per mg IgG) for 2 hours at 4° C. The protein A agarose was washed three times with PBS and the IgG was eluted with 100 mM glycine-HCl pH 2.7. The eluted IgG was neutralized with 1 M Tris-HCl pH 8.0 and concentrated and washed with PBS using an Amicon Ultra-0.5, Ultracel-10 Membrane (Millipore) to a concentration of 15-20 mg/mL.
Trimmed trastuzumab (10 mg/mL, 3.3 nmol), obtained by Endo S treatment of trastuzumab, was incubated with UDP-galactosamine variant 21 (2.5 mM) and β(1,4)-Gal-T1(Y289L) (0.68 mg/mL, 45 μL) in 10 mM MnCl2 and 25 mM Tris-HCl pH 8.0 at 30° C. overnight.
Trimmed trastuzumab (10 mg/mL, 1.3 nmol), obtained by Endo S treatment of trastuzumab, was incubated with UDP-galactosamine variant 22 (4 mM) and β(1,4)-Gal-T1(Y289L) (1.4 mg/mL, 10 μL) in 10 mM MnCl2 and 25 mM Tris-HCl pH 8.0 at 30° C. overnight. Mass spectral analysis of the reduced sample indicated the formation of the product (49750.9 Da, approximately 80% of total heavy chain), resulting from galactosamide furan-2-carboxyl acid transfer to core GlcNAc(Fuc) substituted trastuzumab heavy chain as shown in FIG. 9.
Trimmed trastuzumab (10 mg/mL, 6.6 nmol), obtained by Endo S treatment of trastuzumab, was incubated with the 4-azido-3,5-difluorobenzoyl derivative of UDP-galactosamine (23, 7 mM) and β(1,4)-Gal-T1(Y289L) (2 mg/mL) in 10 mM MnCl2 and 25 mM Tris-HCl pH 8.0 at 30° C. overnight. Mass spectral analysis of the reduced sample indicated the formation of a one major product (49813 Da, approximately 90% of total heavy chain), resulting from transfer of 23 to core GlcNAc(Fuc)-substituted trastuzumab heavy chain.
Trimmed trastuzumab (10 mg/mL, 1.3 nmol), obtained by Endo S treatment of trastuzumab, was incubated with UDP-galactosamine variant 24 (4 mM) and (3(1,4)-Gal-T1(Y289L) (1.4 mg/mL, 10 μL) in 10 mM MnCl2 and 25 mM Tris-HCl pH 8.0 at 30° C. overnight.

Take `[N-]=[N+]=Nc1c(F)cc(C(=O)N[C@H]2[C@@H](OP(=O)(O)OP(=O)(O)OC[C@H]3O[C@@H](n4ccc(=O)[nH]c4=O)[C@H](O)[C@@H]3O)O[C@H](CO)[C@H](O)[C@@H]2O)cc1F` [Compound 23, 4-azido-3,5-difluorobenzoyl Derivative of UDP-GalNH2]: the “product, % of total heavy chain” value was “approximately 90%”.

(Values after US20170009266A1, “PROCESS FOR THE ATTACHMENT OF A GALNAC MOIETY COMPRISING A (HETERO)ARYL GROUP TO A GLCNAC MOIETY, AND PRODUCT OBTAINED THEREBY” (SYNAFFIX B.V., priority 2014, published 2017).)
